Results on one compound are retold here after patent US9889135B2, “Companion diagnostic for CDK4 inhibitors” (Memorial Sloan-Kettering Cancer Center, priority 2013, dated 2018).

Experiment [1] has as its system seven RB-positive patient derived WD/DDLS cell lines. The experiment is described as follows: cell number by Coulter Counter. The format is cell-based, human. Particulars: asynchronously growing cells, counted daily for 4 days.
The next experiment concerns RB in WD/DDLS cell lines. As to the kind of experiment: RB phosphorylation by immunoblot. In kind it is cell-based, human. Particulars: 1 or 2 days of treatment. How it is done:
FIG. 1A-C. […] Mean percentage of BrdU incorporation or annexin V+/7-AAD− cells was calculated from three or more independent experiments. Error bars represent standard deviation (*p<0.05).
Antibodies against CDK4 (3F121), MDM2 (N-20 and SMP14), total RB (IF8), Cyclin A (H432), p16 (C20), p53 (DO-1 and Bp53-12), tubulin (C20) and FLAG (M2) were obtained from Santa Cruz Biotechnology, phospho-Rb 780 (#9307) from Cell Signalling, and ARF (3642) from Abeam, HAUSP (A300-033A) from Bethyl Laboratories. Treated cells were lysed with buffer composed of 50 mM Tris-HCl, pH7.4, 250 mM NaCl, 5 mM EDTA, 0.5% NP40, 2 mM PMSF, and supplemented with protease inhibitors. Eighty micrograms of protein were resolved by SDS-PAGE and transferred to PVDF membranes. Membranes were incubated overnight with antibodies (1:1000). […] Cycles were repeated every four weeks and patients are still on trial. Pre-treatment biopsies were collected within two weeks of the first dose and post-treatment biopsies collected after at last three weeks of treatment. Extracts were prepared in 50 mM Tris-HCl, pH7.4, 150 mM NaCl, 1 mM EDTA, 1% NP40, 0.25% sodium deoxycholate and supplemented with mini-protease inhibitor cocktail (Roche). Tumor response was assessed by reference radiologist by CT scan every six weeks for 36 weeks, and every 12 weeks thereafter. […]
A general note: In western blotting, separated proteins are transferred to a membrane and probed.

The test system of experiment [2] is LS8107, LS7785-10, LS7785-1 and LS8313 cells. As to the kind of experiment: SA-β-gal and SAHF (HP1γ) senescence staining, non-responder lines. In kind it is cell-based, human. Particulars: LS7785-1, LS7785-10, LS8107 and LS8313; even at ten-fold increased concentration. The source says: Mean percentage standard deviation). […] (A) Senescence-associated β-galactosidase and (B) HP1γ staining for senescence associated heterochromatic foci (SAHF) formation was quantitated for three or more independent experiments for each cell line. […] Representative phase contrast micrographs of cells stained for SA-β-gal or immunofluorescence staining for HP1γ in two of the cell lines before (ctrl) and after (PD) drug treatment are shown in the insets of FIGS. 2A and 2B, respectively. (C) BrdU incorporation. […] Error bars represent the standard deviation of the mean calculated from three independent trials. […] Cell number was quantitated by DAPI staining and β-galactosidase staining quantitated as a proportion of total cells. Senescence associated heterochromatic foci were quantitated after cells were fixed with 4% paraformaldehyde, permeabilized with 0.1% Triton, blocked with 2% FBS, and stained with antibodies against HP1γ (1:5000 dilution, 2MOD-1G6 Millipore). Senescent cells were identified by immunofluorescence after treatment of slides with anti-mouse secondary antibodies and quantitation of focal SAHF as a percent of total cells (Leica Upright Confocal SP5 confocal microscope). […] Cell area was measured by with Metamorph software to calculate relative area per cell.

Experiment [3] has as its system MDM2 transcripts in WD/DDLS cell lines. As to the kind of experiment: MDM2 transcript levels by qPCR. In kind it is cell-based, human. As to conditions: two days; each cell line. In general terms: Real-time PCR tracks product formation cycle by cycle.
For experiment [4], the system named is Flag-tagged MDM2 in LS8817 cells. As to the kind of experiment: turnover of FLAG-tagged MDM2 and C464A mutant. The format is cell-based, human. The text has this:
FIG. 21A-B. Turnover of MDM2 is regulated post-translationally. […] Tubulin was used as a loading control. This experiment was repeated twice with similar results. (B) LS8817 cells transduced with either a FLAG-tagged MDM2 or a FLAG-tagged C464A mutant of MDM2 were selected and the turnover of the FLAG-tagged protein measured by immunoblot after protein synthesis was blocked with cycloheximide for the indicated amount of time. A representative immunoblot is shown and the mean and standard deviation was compiled from two independent experiments.

Experiment [5] has as its system HAUSP in WD/DDLS cell lines. As to the kind of experiment: HAUSP levels by immunoblot. In kind it is cell-based, human. Particulars: 2 days of treatment. How it is done: FIG. 25A-D. Turnover of MDM2 is regulated post-translationally. […] Extracts were prepared and MDM2 was immunoprecipitated and the presence of HAUSP and MDM2 in the precipitates were determined by immunoblot. IgG was used as a non-specific antibody control for the immunoprecipitation. […] Tubulin is a loading control. HAUSP levels were reduced with shRNA in the indicated cells lines and the effect on protein expression (C) and the accumulation of senescence-associated (3-galactosidase positive cells measured (D). The mean and standard deviation was compiled from at least two independent experiments with each cell line and a representative immunoblot is shown.

A further experiment deals with LS8817 cells. As to the kind of experiment: PD0332991 induced senescence after knock down of p53 or INK4A products. In kind it is cell-based, human. As to the method: LS8817 cells were infected with lentiviruses expressing either a scrambled (shSCR) or two independent p53 targeting (shp53a and shp53d2) shRNAs. […] The accumulation of senescence associated β-galactosidase (top), and the expression of MDM2 and p53 were determined by immunoblot (bottom). Coomassie staining of the gel indicated equivalent loading.

A further experiment has as its system normal and tumor cells. As to conditions: both normal and tumor cells; cited from earlier work.

As to `CC(=O)c1c(C)c2cnc(Nc3ccc(N4CCNCC4)cn3)nc2n(C2CCCC2)c1=O` [PD0332991], the growth arrest entry in experiment [1] is reported as “growth arrest within a single cell cycle”. For the same compound, the “unphosphorylated RB” value in the experiment on RB in WD/DDLS cell lines is listed as “accumulated”. Besides, the “number of SA-β-gal or SAHF positive cells” value in experiment [2] is “no increase”. Besides, the MDM2 transcripts entry in experiment [3] is on record as “modestly reduced”. Further, the “stability of wild type Flag-tagged MDM2” value in experiment [4] is given as “still turned over”. Also, in experiment [4] (Flag-tagged E3 ligase-deficient mutant), the “stability of the C464A mutant of MDM2” value was “did not affect”. Further, the HAUSP levels entry in experiment [5] is recorded as “did not change”. For the same compound, the PD0332991 induced senescence entry in the experiment on LS8817 cells (p16 and Arf knocked down) is “not affected”. In the experiment on LS8817 cells (p53 deficient cells (two independent shRNAs)), the SA-β-gal positive cells entry is “still accumulated”. In addition, the cell cycle arrest entry in the experiment on normal and tumor cells is given as “G1 arrest”.
